# Patent publication US20240299405A1, “APPLICATION OF ATP POTASSIUM CHANNEL MODIFIER IN PREPARATION OF ANTI-DIABETIC NEPHROPATHY DRUG” (HANGZHOU QIAN BIOTECHNOLOGY LTD, priority 2020, published 2024)
# Assays:
# [1] = test system: STZ diabetic rat models (diabetic nephropathy); assay: Urine microalbumin (mALB) by ELISA in STZ plus high-fat diet diabetic nephropathy rat model; assay type: in vivo, SD rats; details: for mALB, urine microalbumin value of each KATP agonist: week 30, mean ± SE; for effect on reducing the amount of microalbumin in diabetic nephropathy urine compared with the negative control group: week 30, p<0.05; for mALB, 20 Week: week 20, mean ± SE; for mALB, 24 Week: week 24, mean ± SE; for mALB, 26 Week: week 26, mean ± SE; for mALB, 32 Week: week 32, mean ± SE; for mALB, 35 Week: week 35, mean ± SE
# From the text: STZ substantially and excessively damages islet-β cells through chemical toxicity (Saini K, Thompson C, Winterford C M, Walker N I, Cameron D P. Streptozotocin at low doses induces apoptosis and at high doses causes necrosis in a murine pancreatic b cell line, INS1[J]. International Union of Biochemistry and Molecular Biology Life. 1996, 39(6): 1229-1236). The pathophysiological characteristics of STZ modeled rats are relatively close to that of humans. Their blood can be collected repeatedly to monitor index changes and enough kidney tissues can be obtained for subsequent tissue section analysis. Therefore, STZ diabetic rat models are used. In addition, due to the high toxicity of STZ, multiple injections at low doses can establish better models. Keep feeding a high-fat diet daily after modeling until the end of the experiment. A high-fat diet can cause diabetic nephropathy in STZ rats.
# Urine microalbumin (mALB) is an early diagnostic index of kidney injury, and mALB was used as an indicator to test whether rats entered diabetic nephropathy, and rat weight and blood glucose levels were used to observe whether the model was successful.
# mALB is one of the most important monitoring indicators of nephropathy. […] Since the measurement results of mALB in humans and mice are different. The difference between the dosing group (group C) and the negative control group (group B) is used to judge whether the test results of this experiment are valid. The normal mALB value in this experiment was only used as a reference value, which is using the data of group A (blank control group).
# At the beginning of the experiment, urine and blood of all rats were collected for the detection of the required indicators, and the initial indicators were used as a timely reference for the disease progression of the rats. After the start of the experiment, all rats were sampled with the Elisa kit every other month to detect mALB and other data.
# Rat urine collection: urine is collected by metabolic cage, urine is collected after 24 h, the total amount of urine is recorded, and the urine output at 24 h is calculated. Take 1 ml of urine, centrifuge and take the supernatant and store at −80° C. for testing.
# A 24 h urine sample was collected from rats for testing, and the collected sample was centrifuged at 15 min, centrifuged at 4° C. at 1000 ref for 20 min, and the mALB value was detected by supernatant or stored at −20° C.
# Before starting the experiment, you need to do the following: • (1) Place all reagents (including specimens) in the room and equilibrate to room temperature (18-25° C.) before use. • (2) The standard is diluted to the corresponding gradient. Take a bottle of standard, add 1 mL of standard diluent (at this time the concentration is 1000 μg/mL), mix gently, let stand at room temperature for 10 minutes, and gently shake every 2 minutes to mix. After mixing, dilute it to 100 μg/mL, take 4 EP tubes (add 600 μL of standard dilute to each EP tube), triple dilute the standard from a concentration of 100 μg/mL to 33.33 μg/mL, 11.11 μg/mL, 3.70 μg/mL, 1.23 μg/mL, and use the standard dilution as a blank well (0 μg/mL). • (3) Working solution of the detection solution A: add 150 μL of reagent dilution to the mother liquor of the detection solution A, stand at room temperature for 10 minutes, and shake gently every 2 minutes to have a well-mix. Before use, dilute with the detection diluent A at 1:100, and mix the solution well with the shaker. Calculate the required amount at 50 μL/well for dilution before use (0.1-0.2 mL more needs to be prepared). • (4) Working solution of the detection solution B: Detection solution B needs to be centrifuged at 5000 ref for 10 s before each use to deposition the liquid from the tube wall or cap to the bottom of the tube. Immediately before use, dilute with the detection diluent B at 1:100, and mix them well with the shaker. […]
# STZ diabetic rats [2] = assay: Glomerular filtration rate in STZ diabetic rats; assay type: in vivo, SD rats; details: groups C and D (0.5 and 5 mg/kg) versus group B
# Method: (§1) Due to the large body surface area of rats, the doses of groups C, D and E were equivalent to 0.095 mg/kg, 0.95 mg/kg, and 9.5 mg/kg in humans (according to the literature: Anroop B Nair, Shery Jacob. A simple practice guide for dose conversion between animals and human. Journal of Basic and Clinical Pharmacy. 2016, 7(2):27-31.), with 95% binding capacity to albumin, similar to humans. All groups of rats were fed high-fat feed.
# STZ diabetic rats [3] = details: rat, in vivo, 50 mg/kg/day
# Method: as §1
# In addition, rats in the high-dose E group all died before diabetic nephropathy was modeled, of which 13 died in the first four months and the other 5 died in the fifth and sixth months. It was speculated that the death may be related to the high blood glucose elevation of diabetic rats. Therefore, the statistics of Table 1, FIG. 1, FIG. 2, FIG. 3 and FIG. 5 are not included those rats in group E.
# rat kidney = assay: HE staining of rat kidney sections (glomeruli, tubules); assay type: in vivo, SD rats; details: 5 mg/kg (medium-dose) group, six-month rat, renal HE×400
# From the text: In addition, clinically patients with nephropathy will have an increase in glomerular volume and a higher number of cells in the early stage, and with the progression of the disease, there will be widening of the mesangial area, the mesangial cells and mesangial stroma will increase, and the tubular epithelial cells will have cell edema, that is, often called granular degeneration or vacuolar degeneration, tubulointerstitial fibrosis and other symptoms. In this experiment, the glomerular volume changes of rat kidney sections were observed by HE staining, and the results of renal staining sections in each experimental group are shown in FIG. 5.
# [4] = group C, 0.5 mg/kg per day gavage
# [5] = group D, 5 mg/kg per day gavage
smiles,measurement,setting,value
Nc1cc(N2CCCCC2)nc(N)[n+]1[O-] [minoxidil],"mALB, urine microalbumin value of each KATP agonist",[1]; 0.5 mg/kg group,130.4 ± 60.3 µg/mL
CCC1NC(=O)c2cc(S(N)(=O)=O)c(Cl)cc2N1 (centres unmarked) [quinethazone],"mALB, urine microalbumin value of each KATP agonist",[1]; 1 mg/kg group,114.6 ± 45.3 µg/mL
C/N=C(/S)[C@]1(c2cccnc2)CCCC[S@@+]1[O-] [Aprikalim],"mALB, urine microalbumin value of each KATP agonist",[1]; 1 mg/kg group,59.7 ± 25.4 µg/mL
same,effect on reducing the amount of microalbumin in diabetic nephropathy urine compared with the negative control group,[1],significant effect
CC1(C)Oc2ccc(C#N)cc2C(N2CCCC2=O)C1O (centres unmarked) [Cromakalim],"mALB, urine microalbumin value of each KATP agonist",[1]; 1 mg/kg group,77.6 ± 45.6 µg/mL
same,effect on reducing the amount of microalbumin in diabetic nephropathy urine compared with the negative control group,[1],significant effect
O=C(NCCO[N+](=O)[O-])c1cccnc1 [Nicorandil],"mALB, urine microalbumin value of each KATP agonist",[1]; 0.5 mg/kg group,78.2 ± 35.1 µg/mL
same,effect on reducing the amount of microalbumin in diabetic nephropathy urine compared with the negative control group,[1],significant effect
CC(N/C(=N\C#N)Nc1ccncc1)C(C)(C)C (centres unmarked) [Pinacidil],"mALB, urine microalbumin value of each KATP agonist",[1]; 1 mg/kg group,99.7 ± 50.7 µg/mL
same,effect on reducing the amount of microalbumin in diabetic nephropathy urine compared with the negative control group,[1],significant effect
COC(=O)C1=C(C)NC(C)=C(C(=O)OCCN(C)Cc2ccccc2)C1c1cccc([N+](=O)[O-])c1 (centres unmarked) [nicardipine],"mALB, urine microalbumin value of each KATP agonist",[1]; 5 mg/kg group,55.4 ± 25.6 µg/mL
"CC1=Nc2ccc(Cl)cc2S(=O)(=O)N1 [Diazoxide, 7-chloro-3-methyl-2-hydro-1,2,4-benzothiadiazine 1,1-dioxide]",effect on the increase of compensatory glomerular filtration rate,STZ diabetic rats [2],could reduce the increase of glomerular filtration rate
same,death of rats,STZ diabetic rats [3],all died
same,"kidney histology, HE staining",rat kidney,some glomeruli significantly increased in size
same,"kidney histology, HE staining",rat kidney; listed as diazoxide,tubular vacuolar degeneration
same,progression of diabetic nephropathy,[1]; 0.5 mg/kg,can delay the progression of diabetic nephropathy
same,"mALB, 20 Week",[1]; [4],15.6 ± 2.9 µg/mL
same,"mALB, 24 Week","[1]; group C, 0.5 mg/kg per day gavage, 0.5 mg/kg/day",18.2 ± 4.7 µg/mL
same,"mALB, 26 Week",[1]; [4],28.4 ± 10.8 µg/mL
same,"mALB, 32 Week",[1]; [4],149.5 ± 50.3 µg/mL
same,"mALB, 35 Week",[1]; [4],108.0 ± 33.7 µg/mL
same,"mALB, 20 Week",[1]; [5],14.5 ± 3.0 µg/mL
same,"mALB, 24 Week","[1]; group D, 5 mg/kg per day gavage, 5 mg/kg/day",19.8 ± 4.3 µg/mL
same,"mALB, 26 Week",[1]; [5],19.9 ± 7.4 µg/mL
same,"mALB, 32 Week",[1]; [5],105.5 ± 38.9 µg/mL
same,"mALB, 35 Week",[1]; [5],52.8 ± 23.4 µg/mL
